{
  "source": "patent US20210045385A1",
  "about": "“PYRIDAZINONE-SUBSTITUTED KETOXIMES AS HERBICIDES” (FMC Corporation, priority 2018, published 2021)",
  "type_in_all_cases": "in vivo",
  "key": {"[1]": {"test_system": "galium (catchweed bedstraw, Galium aparine)", "experiment": "Test A postemergence, visual plant response rating", "method_in_brief": "(§1)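 Ratings use a 0–100 visual scale (100 = complete control) against untreated controls, scored about 10 days after greenhouse treatment. Test chemicals were formulated in surfactant-containing non-phytotoxic solvent and applied either as soil spray after planting (preemergence) or onto one- to two-leaf, 2–10 cm plants (postemergence).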"}, "corn (Zea mays)": {"test_system": "corn (Zea mays)", "experiment": "Test A postemergence, visual plant response rating", "method_in_brief": "as §1"}, "[2]": {"test_system": "foxtail, giant (giant foxtail, Setaria faberii)", "experiment": "Test A postemergence, visual plant response rating", "method_in_brief": "as §1"}, "[3]": {"test_system": "wheat (Triticum aestivum)", "experiment": "Test A postemergence, visual plant response rating", "method_in_brief": "as §1"}, "[4]": {"test_system": "ragweed (common ragweed, Ambrosia elatior)", "experiment": "Test A postemergence, visual plant response rating", "method_in_brief": "as §1"}, "[5]": {"test_system": "Italian ryegrass (Lolium multiflorum)", "experiment": "Test A postemergence, visual plant response rating", "method_in_brief": "as §1"}, "kochia (Kochia scoparia) [6]": {"test_system": "kochia (Kochia scoparia)", "experiment": "Test A postemergence, visual plant response rating", "method_in_brief": "as §1"}, "[7]": {"test_system": "blackgrass (Alopecurus myosuroides)", "experiment": "Test A postemergence, visual plant response rating", "method_in_brief": "as §1"}, "[8]": {"test_system": "barnyardgrass (Echinochloa crus-galli)", "experiment": "Test A postemergence, visual plant response rating", "method_in_brief": "as §1"}, "[9]": {"test_system": "pigweed (Amaranthus retroflexus)", "experiment": "Test A postemergence, visual plant response rating", "method_in_brief": "as §1"}, "[10]": {"test_system": "ducksalad (Heteranhera limosa)", "experiment": "Test B flooded paddy test, visual plant response rating", "conditions": "250 g ai/ha, Flood, applied to paddy water, 2-leaf stage, evaluated after 13 to 15 days", "method_in_brief": "(§2)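 Flooded-pot treatment: water 3 cm over the soil, chemical delivered into that water, depth unchanged for the duration. Assessed by eye versus controls following 13–15 greenhouse days; plants were at 2 leaves when dosed.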"}, "[11]": {"test_system": "sedge, umbrella (small-flower umbrella sedge, Cyperus difformis)", "experiment": "Test B flooded paddy test, visual plant response rating", "conditions": "250 g ai/ha, Flood, applied to paddy water, 2-leaf stage, evaluated after 13 to 15 days", "method_in_brief": "as §2"}, "[12]": {"test_system": "barnyardgrass (Echinochloa crus-galli)", "experiment": "Test B flooded paddy test, visual plant response rating", "conditions": "250 g ai/ha, Flood, applied to paddy water, 2-leaf stage, evaluated after 13 to 15 days", "method_in_brief": "as §2"}, "rice (Oryza sativa)": {"test_system": "rice (Oryza sativa)", "experiment": "Test B flooded paddy test, visual plant response rating", "conditions": "250 g ai/ha, Flood, applied to paddy water, 2-leaf stage, evaluated after 13 to 15 days", "method_in_brief": "as §2"}, "[13]": {"test_system": "foxtail, giant (giant foxtail, Setaria faberii)", "experiment": "Test A preemergence, visual plant response rating", "method_in_brief": "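Greenhouse pot test in loam–sand soil mix: compound in a surfactant-containing non-phytotoxic solvent applied preemergence (directed soil spray) or postemergence (one- to two-leaf plants, 2–10 cm). Injury scored visually after ~10 days, 0–100.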"}, "[14]": {"test_system": "ragweed (common ragweed, Ambrosia elatior)", "experiment": "Test A preemergence, visual plant response rating", "method_in_brief": "as §1"}, "[15]": {"test_system": "Italian ryegrass (Lolium multiflorum)", "experiment": "Test A preemergence, visual plant response rating", "method_in_brief": "as §1"}, "kochia (Kochia scoparia) [16]": {"test_system": "kochia (Kochia scoparia)", "experiment": "Test A preemergence, visual plant response rating", "method_in_brief": "as §1"}, "[17]": {"test_system": "barnyardgrass (Echinochloa crus-galli)", "experiment": "Test A preemergence, visual plant response rating", "method_in_brief": "as §1"}, "[18]": {"test_system": "pigweed (Amaranthus retroflexus)", "experiment": "Test A preemergence, visual plant response rating", "method_in_brief": "as §1"}, "[19]": {"conditions": "500 g ai/ha, postemergence, 0 is no effect, 100 is complete control"}, "[20]": {"conditions": "Postemergence, 125 g ai/ha, 0 to 100 scale (0 no effect, 100 complete control)"}, "[21]": {"conditions": "125 g ai/ha, preemergence, 0 to 100 scale, 0 no effect, 100 complete control"}, "[22]": {"conditions": "500 g ai/ha Preemergence, approx. 10 days"}},
  "data": [
    {"compound": "CON=C(c1cccc(F)c1)c1c(O)c(C)nn(C)c1=O", "note": "[Compound 64]", "values": [
      {"measurement": "Galium plant response rating (0 to 100 scale)", "setting": "[1]; [19]", "value": 80},
      {"measurement": "Galium plant response rating", "setting": "[1]; [20]", "value": 70},
      {"measurement": "Corn plant response rating (0 to 100 scale)", "setting": "corn (Zea mays); [19]", "value": 0},
      {"measurement": "Corn plant response rating", "setting": "corn (Zea mays); [20]", "value": 0},
      {"measurement": "Foxtail, Giant plant response rating (0 to 100 scale)", "setting": "[2]; [19]", "value": 10},
      {"measurement": "Foxtail, Giant plant response rating", "setting": "[2]; [20]", "value": 0},
      {"measurement": "Wheat plant response rating (0 to 100 scale)", "setting": "[3]; [19]", "value": 0},
      {"measurement": "Wheat plant response rating", "setting": "[3]; [20]", "value": 0},
      {"measurement": "Ragweed plant response rating (0 to 100 scale)", "setting": "[4]; [19]", "value": 50},
      {"measurement": "Ragweed plant response rating", "setting": "[4]; [20]", "value": 20},
      {"measurement": "Ryegrass, Italian plant response rating (0 to 100 scale)", "setting": "[5]; [19]", "value": 70},
      {"measurement": "Ryegrass, Italian plant response rating", "setting": "[5]; [20]", "value": 50},
      {"measurement": "Kochia plant response rating (0 to 100 scale)", "setting": "kochia (Kochia scoparia) [6]; [19]", "value": 60},
      {"measurement": "Kochia plant response rating", "setting": "kochia (Kochia scoparia) [6]; [20]", "value": 20},
      {"measurement": "Blackgrass plant response rating (0 to 100 scale)", "setting": "[7]; [19]", "value": 20},
      {"measurement": "Blackgrass plant response rating", "setting": "[7]; [20]", "value": 0},
      {"measurement": "Barnyardgrass plant response rating (0 to 100 scale)", "setting": "[8]; [19]", "value": 20},
      {"measurement": "Barnyardgrass plant response rating", "setting": "[8]; [20]", "value": 20},
      {"measurement": "Pigweed plant response rating (0 to 100 scale)", "setting": "[9]; [19]", "value": 40},
      {"measurement": "Pigweed plant response rating", "setting": "[9]; [20]", "value": 20},
      {"measurement": "Plant response rating, Ducksalad (0 to 100 scale, 0 is no effect, 100 is complete control)", "setting": "[10]", "value": 0},
      {"measurement": "Plant response rating, Sedge, Umbrella (0 to 100 scale, 0 is no effect, 100 is complete control)", "setting": "[11]", "value": 0},
      {"measurement": "Plant response rating, Barnyardgrass (0 to 100 scale, 0 is no effect, 100 is complete control)", "setting": "[12]", "value": 0},
      {"measurement": "Plant response rating, Rice (0 to 100 scale, 0 is no effect, 100 is complete control)", "setting": "rice (Oryza sativa)", "value": 0},
      {"measurement": "Foxtail, Giant plant response rating", "setting": "[13]; [21]", "value": 0},
      {"measurement": "Foxtail, Giant plant response rating (0 to 100 scale)", "setting": "[13]; [22]", "value": 0},
      {"measurement": "Ragweed plant response rating", "setting": "[14]; [21]", "value": 10},
      {"measurement": "Ragweed plant response rating (0 to 100 scale)", "setting": "[14]; [22]", "value": 20},
      {"measurement": "Ryegrass, Italian plant response rating", "setting": "[15]; [21]", "value": 30},
      {"measurement": "Ryegrass, Italian plant response rating (0 to 100 scale)", "setting": "[15]; [22]", "value": 60},
      {"measurement": "Kochia plant response rating", "setting": "kochia (Kochia scoparia) [16]; [21]", "value": 0},
      {"measurement": "Kochia plant response rating (0 to 100 scale)", "setting": "kochia (Kochia scoparia) [16]; [22]", "value": 0},
      {"measurement": "Barnyardgrass plant response rating", "setting": "[17]; [21]", "value": 0},
      {"measurement": "Barnyardgrass plant response rating (0 to 100 scale)", "setting": "[17]; [22]", "value": 0},
      {"measurement": "Pigweed plant response rating", "setting": "[18]; [21]", "value": 0},
      {"measurement": "Pigweed plant response rating (0 to 100 scale)", "setting": "[18]; [22]", "value": 10}
    ]}
  ]
}
